According to ChEMBL document CHEMBL1152036, “Acyclic nucleoside triphosphate analogs as terminators in biocatalytic DNA replication” (Bioorg Med Chem Lett, 1997):

Legend:
[1] = test system: HIV-1 reverse transcriptase (Human immunodeficiency virus 1); assay: The compound was evaluated as substrate for DNA replicating enzyme, HIV-1 RT at a concentration of 1 mM; Termination
[2] = test system: Nucleic Acid; assay: The compound was evaluated as substrate for DNA replicating enzyme, Bst DNA polymerase; No incorporation; assay type: nucleic-acid assay
[3] = test system: Nucleic Acid; assay: The compound was evaluated as substrate for DNA replicating enzyme, AmpliTaq DNA polymerase; No incorporation; assay type: nucleic-acid assay
[4] = test system: Nucleic Acid; assay: The compound was evaluated as substrate for DNA replicating enzyme, rTth DNA polymerase; No incorporation; assay type: nucleic-acid assay
[5] = test system: Nucleic Acid; assay: The compound was evaluated as substrate for DNA replicating enzyme, AmpliTaq FS DNA polymerase at a concentration of 1 mM; Termination; assay type: nucleic-acid assay
[6] = target: DNA polymerase I, thermostable (Thermus aquaticus) (UniProt P19821); assay: The compound was evaluated as substrate for DNA replicating enzyme, Taq DNA polymerase at a concentration of 1 mM; Termination
Sequence of DNA polymerase I, thermostable (Thermus aquaticus) (P19821 whole entry): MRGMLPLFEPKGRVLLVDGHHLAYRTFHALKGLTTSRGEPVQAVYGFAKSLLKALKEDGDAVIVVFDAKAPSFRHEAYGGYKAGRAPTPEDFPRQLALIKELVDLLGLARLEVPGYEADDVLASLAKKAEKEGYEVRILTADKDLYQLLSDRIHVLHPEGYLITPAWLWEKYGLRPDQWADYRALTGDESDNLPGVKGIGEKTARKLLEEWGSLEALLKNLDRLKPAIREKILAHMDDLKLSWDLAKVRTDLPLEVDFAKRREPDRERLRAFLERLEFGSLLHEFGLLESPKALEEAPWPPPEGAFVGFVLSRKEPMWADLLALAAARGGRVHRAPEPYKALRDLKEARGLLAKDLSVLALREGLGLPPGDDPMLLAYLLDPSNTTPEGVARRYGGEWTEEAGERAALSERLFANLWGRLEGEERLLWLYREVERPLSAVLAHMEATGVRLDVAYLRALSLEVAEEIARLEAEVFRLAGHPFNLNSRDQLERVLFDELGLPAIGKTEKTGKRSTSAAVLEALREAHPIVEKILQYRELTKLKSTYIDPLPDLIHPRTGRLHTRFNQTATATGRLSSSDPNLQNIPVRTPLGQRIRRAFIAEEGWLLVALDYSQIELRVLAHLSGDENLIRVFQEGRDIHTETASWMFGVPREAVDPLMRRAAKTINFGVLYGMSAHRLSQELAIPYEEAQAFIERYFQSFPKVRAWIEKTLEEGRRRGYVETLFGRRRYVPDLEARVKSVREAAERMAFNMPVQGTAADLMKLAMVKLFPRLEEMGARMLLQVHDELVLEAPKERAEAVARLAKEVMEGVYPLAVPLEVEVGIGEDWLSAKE

[7] = test system: HIV-1 reverse transcriptase (Human immunodeficiency virus 1); assay: The compound was evaluated as substrate for DNA replicating enzyme, HIV-1 RT at a concentration of 1 mM; Not assayed
[8] = test system: Nucleic Acid; assay: The compound was evaluated as substrate for DNA replicating enzyme, AmpliTaq FS DNA polymerase at a concentration of 100 uM; Termination; assay type: nucleic-acid assay
[9] = target: DNA polymerase I, thermostable (Thermus aquaticus) (UniProt P19821); assay: The compound was evaluated as substrate for DNA replicating enzyme, Taq DNA polymerase at a concentration of 100 uM; Termination

| Activity [1] | Activity [2] | Activity [3] | Activity [4] | Activity [5] | Activity [6] | Activity [7] | Activity [8] | Activity [9] | Compound |
| --- | --- | --- | --- | --- | --- | --- | --- | --- | --- |
| No incorporation | No incorporation | No incorporation | No incorporation | No incorporation | No incorporation | – | – | – | Cc1cn(CC(=O)N(C)CCOP(=O)(O)OP(=O)(O)OP(=O)(O)O)c(=O)[nH]c1=O |
| – | No incorporation | – | No incorporation | – | – | No incorporation | No incorporation | No incorporation | CN(CCOP(=O)(O)OP(=O)(O)OP(=O)(O)O)C(=O)Cn1cnc2c(N)ncnc21 |
